Test results taken from PubChem BioAssay (NCI).
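48-hour exposure; five concentrations; linearly interpolated endpoints. TGI denotes the concentration required for complete inhibition of growth.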

Assays:
Assay in all cases: DTP human tumour cell line panel, 48 h
786-0 renal = system: 786-0 renal
HOP-92 NSCLC = system: HOP-92 NSCLC
NCI-H460 lung = system: NCI-H460 lung
A549 NSCLC = system: A549 NSCLC
MALME-3M melanoma = system: MALME-3M melanoma
SK-MEL-2 melanoma = system: SK-MEL-2 melanoma
M14 melanoma = system: M14 melanoma
COLO 205 colon = system: COLO 205 colon
DU-145 prostate = system: DU-145 prostate
MDA-MB-435 = system: MDA-MB-435
MCF7 breast = system: MCF7 breast

Compound	TGI (786-0 renal)	TGI (HOP-92 NSCLC)	TGI (NCI-H460 lung)	TGI (A549 NSCLC)	TGI (MALME-3M melanoma)	TGI (SK-MEL-2 melanoma)	TGI (M14 melanoma)	TGI (COLO 205 colon)	TGI (DU-145 prostate)	TGI (MDA-MB-435)	TGI (MCF7 breast)
N=C1C(=N)c2ccccc2-c2ccccc21.[Cl-].[Ru+2].c1ccc(-c2ccccn2)nc1.c1ccc(-c2ccccn2)nc1	> 100 µM	> 100 µM	> 100 µM	> 100 µM	> 100 µM	> 100 µM	> 100 µM	–	–	–	–
CC(=O)Nc1ccc2c(C)c3c(nc2n1)[nH]c1ccccc13	> 100 µM	79 µM	49 µM	> 100 µM	–	55.5 µM	82.2 µM	32 µM	> 100 µM	87.3 µM	> 100 µM
Cc1ccc(C)c(NC(=O)C(=O)C(C(=O)c2ccc3ccccc3c2)C2OC(=O)c3ccccc32)c1 (centres undefined)	–	78 µM	27.7 µM	45.7 µM	–	44.7 µM	28.8 µM	32.1 µM	–	–	–
Cc1ccc(C(=N)c2ccccc2Cc2cccc3ccccc23)c2ccccc12	> 100 µM	> 100 µM	> 100 µM	> 100 µM	> 100 µM	> 100 µM	> 100 µM	> 100 µM	> 100 µM	> 100 µM	> 100 µM
C#CCNC(CSSCC(N)C(=O)O)C(=O)O (centres undefined)	> 100 µM	> 100 µM	–	> 100 µM	> 100 µM	> 100 µM	> 100 µM	> 100 µM	> 100 µM	> 100 µM	> 100 µM
c1ncn(C23C4C5C6C4C2C6C53)n1 (centres undefined)	> 100 µM	–	> 100 µM	> 100 µM	–	> 100 µM	–	> 100 µM	> 100 µM	> 100 µM	> 100 µM
COC(=O)[C@H]1C=NN[C@@H]1C(=O)N1[C@H]2CC3CC[C@@]2(CS1(=O)=O)C3(C)C	–	> 100 µM	> 100 µM	> 100 µM	> 100 µM	> 100 µM	> 100 µM	> 100 µM	> 100 µM	> 100 µM	> 100 µM
S=C1c2ccc(Cl)cc2-n2cnnc2C2CSCN12 (centres undefined)	> 100 µM	–	> 100 µM	> 100 µM	> 100 µM	> 100 µM	> 100 µM	> 100 µM	> 100 µM	> 100 µM	> 100 µM
COC1CC(N)(c2ccccc2)C(O)C(C)O1 (centres undefined)	> 100 µM	> 100 µM	> 100 µM	> 100 µM	> 100 µM	> 100 µM	> 100 µM	> 100 µM	> 100 µM	> 100 µM	> 100 µM
O=C(Nc1ccccc1)N(C1=NCC(CI)S1)c1ccc(F)c(F)c1 (centres undefined)	> 100 µM	26.3 µM	> 100 µM	> 100 µM	> 100 µM	60.5 µM	–	> 100 µM	> 100 µM	–	> 100 µM
Cc1ccc2nc(SCC(=O)N=Nc3c(O)[nH]c4ccccc34)n(-c3ccccc3)c(=O)c2c1	29.5 µM	29.6 µM	29 µM	28.6 µM	34.7 µM	13.2 µM	29.8 µM	33 µM	26.2 µM	33.7 µM	29.6 µM
COc1cccc(N2C(=O)CSC2c2cccc(Oc3ccccc3)c2)c1 (centres undefined)	24 µM	62.8 µM	12.3 µM	> 100 µM	53.7 µM	16.3 µM	51 µM	10.2 µM	> 100 µM	> 100 µM	7.13 µM
CC12CCC(CC(=O)/C1=C(/Br)I)C2(C)C (centres undefined)	30.2 µM	31.6 µM	> 100 µM	29.3 µM	25.8 µM	30.3 µM	28.3 µM	31.9 µM	34.8 µM	28.6 µM	–
COC(=O)Cc1cc(O)c2c(c1O)C(=O)c1ccccc1C2=O	> 77.1 µM	56 µM	> 100 µM	> 100 µM	> 100 µM	> 100 µM	> 100 µM	> 100 µM	> 100 µM	> 100 µM	> 56.3 µM
COc1ccc(N2C(=O)C3c4[nH]c5ccc(OCc6ccccc6)cc5c4C4CCC(c5ccccc5)CC4C3C2=O)cc1 (centres undefined)	7.51 µM	10.3 µM	12.3 µM	> 39 µM	45.6 µM	68 µM	> 100 µM	> 100 µM	> 100 µM	12.1 µM	> 75 µM
COc1cc(/C=C2\C(=O)N(c3cccc([N+](=O)[O-])c3)C(c3ccccc3)S2(=O)=O)cc(OC)c1OC (centres undefined)	> 100 µM	> 100 µM	> 100 µM	> 100 µM	> 100 µM	> 100 µM	> 100 µM	> 100 µM	> 100 µM	> 100 µM	> 100 µM
CC(N=NNc1ccc(-c2nc3ccccc3[nH]2)cc1)C(=O)O (centres undefined)	89.9 µM	> 100 µM	79 µM	> 100 µM	> 100 µM	> 100 µM	> 100 µM	> 100 µM	> 100 µM	> 100 µM	34.1 µM
O=C(O)CCc1nc2c(n1-c1ccccc1)C(=O)c1ccccc1C2=O	> 100 µM	61.3 µM	> 100 µM	> 100 µM	–	> 100 µM	> 100 µM	> 100 µM	> 100 µM	> 100 µM	> 100 µM
O=c1[nH]/c(=C/c2ccc(OCc3ccccc3)cn2)c(=O)[nH]/c1=C/c1ccccc1	> 100 µM	> 100 µM	> 100 µM	> 100 µM	–	> 100 µM	> 100 µM	> 25.4 µM	–	0.567 µM	> 100 µM
C=CCOC(=O)N1c2ccc(O[Si](C)(C)C(C)(C)C)cc2[C@@]23O[C@@]24[C@@H]1C#C/C=C\C#C[C@]3(O)C(OC)(OC)C[C@@H]4C	> 100 µM	> 100 µM	> 100 µM	> 100 µM	> 100 µM	> 100 µM	> 100 µM	> 100 µM	> 100 µM	> 100 µM	> 92.4 µM
N#Cc1c(-c2ccc(Cl)cc2)c2c(nn3c4ccc5ccccc5c4nnc23)[nH]c1=O	6.16 µM	6.72 µM	16.2 µM	20.8 µM	3.83 µM	5.77 µM	6.14 µM	10.6 µM	4.61 µM	8.69 µM	14.8 µM
